Reference: US11812746B2, “Method of controlling fungal infections in plants” (THE STATE OF ISRAEL, MINISTRY OF AGRICULTURE & RURAL …, priority 2016, dated 2023)

Columns and labels:
[1] = tested on: B. cinerea; assay: Whole petunia plants sprayed or pots drenched, leaves inoculated with B. cinerea; assay type: in vivo, Botrytis cinerea; settings: for B. cinerea infection (decay area): 0.5 mM, spraying
Description: Inoculation with B. cinerea was performed 3 days after Phe treatment. In this case only one Phe treatment was performed however multiple treatments can be used e.g., first-three days prior to inoculation and a second one on the day of inoculation (data not shown but results are similar). 18 leaves were inoculated with B. cinerea, as described above. The plants were covered with a nylon bag and kept in the light and 22° C. (as above).
Commercial petunia plants (‘Dream Heaven’) were treated as described above in Example 3, either by spraying the plants (FIG. 3A) or drenching the pots (FIG. 3B), this time with increasing concentrations of Phe (6-50 mM).

[2] = tested on: Botrytis cinerea (isolate BcI16); assay: Gray mold on attached leaves of tomato plants treated by spray or drench; assay type: in vivo; settings: for B. cinerea infection (disease severity): 0.5 mM, spraying
Description: Tomato plants (tomato cultivar-Brigate) were grown from seeds in a nursery and transplanted into 1 liter pots at 40 to 50 days following seeding in an unheated greenhouse. Plants were fertilized proportionally with drippers 2-3 times per day with 5:3:8 NPK fertilizer (irrigation water was planned to have total N, P and K concentrations of 120, 30 and 150 mg/L, respectively; EC 2.2 dS/m), allowing for 25-50% drainage. Plants were maintained at 20-30° C. with natural light, and relative humidity of 50-90% in a pest- and disease-free greenhouse during the growth period and then transferred to an area where disease was allowed to develop following pathogen infection on intact leaves as described below.
Botrytis cinerea [Pers.:Fr. [Teleomorph: Botryotinia fuckeliana (de Bary) Whetzel] (isolate BcI16; [Swartzberg D. et al., Eur. J. Plant Pathol., 2008, 120:289-297])] was cultured on potato dextrose agar (PDA, Difco, Detroit, MI) in 90 mm diam. petri plates containing 15 ml PDA each and incubated at 20° C. The inoculum was maintained on PDA and transferred every two weeks. Gray mold conidia were harvested from 10 to 14 day-old cultures by agitating 1 cm^2 of agar bearing mycelium and conidia in a glass tube with tap water. The suspension was then filtered through cheesecloth. The concentration of conidia was determined using a haemocytometer and a light microscope, and adjusted to 5×10^5 conidia/ml. Since B. cinerea conidia need carbon and phosphate for germination and penetration, 0.1% glucose was added to the final conidial suspension together with 0.1% KH2PO4.
Plant attached tomato leaves were examined. Whole plants were kept in a humidity chamber at 22±1° C., 97±3% RH, and 1020 lux light intensity. Plants were infected by placing 10 μL drops of a 5×10^5 conidia/ml suspension, 5 drops/leaf (one drop on each leaflet), on two mature leaves.
Disease severity was evaluated on each plant using a pictorial key; 0=no infection (infection site is symptomless) and 100=all infection site fully covered by gray mold symptoms. The analyses were performed in the mentioned plants.
Phenylalanine treatment consisted of either spray or drench at concentrations of 0.5-4.1 mM administrated 3 and 0 days before infection with B. cinerea. Control plants were treated by water and kept under the same conditions as mentioned above.
Treatments in experiments were replicated 5 times. Replicates of each treatment were arranged randomly. Disease severity data in percentages were arcsin-transformed before further analysis. Disease severity data were analyzed using ANOVA and Fisher's protected LSD test and disease levels were statistically separated (P≤0.05) following a one-way analysis of variance.
Specifically, tomato plants were sprayed with increasing concentrations of Phe solutions (0.5-30 mM aquatic solution of Phe, no detergent) and percent disease severity was determined 11 days following treatment.

[3] = tested on: Plenodomus tracheiphilus syn Phoma tracheiphila; assay: Lemon plants in pots, mal secco disease after leaf wounding and conidia infection; assay type: in vivo; settings: 4 mM, drenching 10 ml per pot or spraying
Description: Phe concentration used was 4 mM. Results are presented by disease incidence of infection sites as percent resulting from drench treatment (lower FIG. 7A) and spray treatment (upper FIG. 7A)
Lemon plants in pots were treated with 4 mM Phe water solutions either by drenching 10 ml of solution per pot or spraying, as described for tomato. Infection was carried out by conidia suspension of Plenodomus tracheiphilus after leaf wounding by a needle. Disease incidence was evaluated according to the amount of successful infection sites on the infected leaves and presented as percent of infected leaves.

[4] = tested on: B. cinerea; assay: Cut Ruscus branches drenched or dipped in Phe, leaves wounded and inoculated with B. cinerea; assay type: in vivo, Botrytis cinerea; settings: whole branches dipped for an hour in 6 mM
Description: Ruscus branches serve as an ornamental decorative. These plants are very susceptible to Botrytis. Cut branches were treated with Phe either by drenching the tip of the cut branch in the Phe solution (FIG. 4B), or dipping the whole cut branch in Phe solution for an hour before dipping it in water and inoculating with botrytis. In both treatments the concentration used was 6 mM phenylalanine, and for the drenching treatment an additional concentration of 20 mM was added (FIG. 4A). For the dipping experiment 50 ppm T.O.G-6 was added to the Phe solution to prevent bacterial growth during the days of the experiment. Control branches were drenched in water and dipped in water with 50 ppm T.O.G-6. Ruscus leaves were wounded and inoculated with B. cinerea as described in the above Examples. Decay area (mm*2) results are presented as averages of 10 replications with each being a leaf from one of 10 branches±SE.

[5] = tested on: Sclerotinia sclerotiorum; assay: Tomato leaves, white rot after spray or drench treatment; assay type: in vivo; settings: spray and drench, 4 mM
Description: Phe concentration used was 4 mM. Results are presented by disease severity scoring of AUDPC (area under disease progress curve during 15 days after infection) where the severity is marked by units of rot area (mm^2) multiplied by the time of incubation.

[6] = tested on: Botrytis cinerea strain BO-05; assay: Detached petunia leaves dipped in Phe, wound inoculated with B. cinerea conidia; assay type: in vivo; settings: 15 mM Phe dip, 7 days post inoculation, vs non-treated controls
Description: Petunia (Petunia×hybrida) V26 variety, and a commercial white flowered cultivar (Dream White) cultivars were used. Petunia plants were grown as described in Oliva et al., (2015). Arabidopsis plants were grown as described in Tzin et al., (2012).
Conidia of Botrytis cinerea strain BO-05 were grown on PDA medium for 10 days. Conidia were gently collected from the plate in sterile water and were diluted to 10^6 conidia/ml. Fresh leaves of similar age and size of Petunia or Arabidopsis were detached from the plant, washed with water and placed in a humid chamber, under artificial light at 22° C. The upper side of the leaves was wounded (1-2 mm) and 5 μl drops of conidia suspension at a concentration of 10^6 conidia/ml were placed on the artificial wound. Decay diameter was measured following inoculation in specific days post inoculation (dpi) as detailed in the results.
Petunia leaves were dipped for 10 min in double distilled water with 0.02% Silwett L-77 surfactant supplemented either with 15 mM or 0 mM phenylalanine. Leaves were then placed in a humid box, and wound inoculated with B. cinerea was performed as described above.
In an independent experiment the decay diameter of detached leaves of wild type petunia (V26 cultivar) treated with 15 mM Phe or with […]. […]
Necrotic area was measured at 3, 4 and 7 days post inoculation (dpi). […]

[7] = tested on: Alternaria alternata; assay: Postharvest avocado fruit dip, inoculation with Alternaria alternata; assay type: in vivo; settings: avocado 'Ettinger', dip 30 seconds at 1-4 mM, 6 days post inoculation, 23° C.
Description: FIG. 8 are images of avocado fruits of the cultivar ‘Ettinger’ dipped in water or 1 mM or 4 mM phenylalanine for 30 seconds and stored for one day at 5° C. Then the avocado fruit were inoculated by wounding at the fruit equatorial with […] of spore suspension of Alternaria alternata at the concentration of 10^5 conidia/ml at two sides of the fruit. The fruits were stored at 23° C. The decay area was monitored during 6 days post inoculation. Clearly, the fruit treated with Phe solutions, postharvest show
Avocado fruits of the cultivar ‘Ettinger’ were dipped in water or 1 mM or 4 mM phenylalanine for 30 seconds and stored for one day at 5° C. Then the avocado fruit were inoculated at the fruit equatorial with Alternaria alternata at the concentration of 10^5 conidia/ml at two sides of the fruit. The decay area was monitored during 6 days post inoculation, while incubation at 23° C.

[8] = tested on: Sclerotinia sclerotiorum; assay: Sweet basil plants in pots, white rot after mycelium disc inoculation; assay type: in vivo; settings: 4.1 mM, spray or drench
Description: Phe concentration used was 4.1 mM. Results are presented by disease severity scoring of AUDPC (area under disease progress curve during 6 days after infection) where the severity is marked by units of rot diameter (mm) multiplied by the time of incubation.
Sweet basil plants in pots were treated with 4.1 mM Phe as described for tomato, and inoculated with a S. sclerotiorum mycelium disc from 4 days potato dextrose agar culture (White rot), related to botrytis, both being from the Ascomycota division.

[9] = tested on: Pythium aphanidermatum; assay: Cucumber plantlets, damping off disease after drench; assay type: in vivo; settings: 4 mM drench
Description: Phe concentration used was 4 mM. Results are presented by the percentage of dead plants incidence (FIG. 9A). FIG. 9B: control treatment=lower row and Phe treatment=upper row.
Cucumber plantlets cv. Bet Alpha and grown in peat based growing medium were treated either by drenching 4 mM phenylalanine solution, 10 ml per pot containing 4 plants each. and the percent plantlets that survived was determined in each treatment. […] FIG. 9B presents two pots of each treatment; Pots in the lower row were not treated and pots in upper row were treated with 4 mM Phe.

SMILES | B. cinerea infection (decay area) ([1]; petunia) | B. cinerea infection (disease severity) [2] | resistance of the plants to B. cinerea at higher concentrations ([1]; petunia 'Dream Heaven', spray or drench, 6-50 mM) | decay area ([1]; petunia, 35 and 50 mM, 7 days after spraying and 10 days after drenching) | degree of resistance, 4.1 mM compared with 6 mM ([1]; whole petunia plants, 4.1 mM Phe vs 6 mM Phe) | tolerance to B. cinerea (decay area) ([1]; whole petunia plants, spraying or drenching, 6 mM, inoculation 3 days after treatment) | resistance of the plant leaves to the fungus (disease incidence) [3] | effect of adding a surfactant on resistance to B. cinerea ([2]; 0.5 mM Phe with 0.01% Tween 80 vs without) | disease severity (gray mold) ([2]; drench to the root zone, 0.5 to 4.1 mM) | duration of resistance ([2]; spray, 20 and 30 mM (results not shown)) | disease severity (gray mold) ([2]; sprayed on the plants, 1.0 to 4.1 mM) | resistance to botrytis (decay area) [4] | resistance of tomato leaves to white rot [5] | diameter of decay [6] | area of brown spots [7] | disease symptoms (white rot) [8] | tolerance to Pythium aphanidermatum (percentage of dead plants) [9]
N[C@@H](Cc1ccc(O)cc1)C(=O)O [Tyr, Tyrosine] | reduced B. cinerea infection | reduced B. cinerea infection |  |  |  |  |  |  |  |  |  |  |  |  |  |  | 
N[C@@H](Cc1ccccc1)C(=O)O [Phe, Phenylalanine] | reduced B. cinerea infection | reduced B. cinerea infection | increased resistance | no increased decay area | a little lower | Increases Tolerance | increased the resistance | improved the effect of increased resistance | reduced significantly | increased resistance for a longer period of time | reduced significantly | increased resistance of the plants to botrytis significantly | increase the resistance | significantly smaller | reduced the area of brown spots caused by Alternaria alternata by four folds | significant reduction in disease symptoms | increased tolerance
